Source: PubChem BioAssay (NCI)
Several values for one entry are separate records, joined by “and”; a condition that tells them apart may be missing. Equal values may be shown once.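 Briefly, cells in 96-well plates were exposed to five compound concentrations for 48 h, and endpoints were estimated by linear interpolation. At the GI50, growth is halved. TGI marks complete inhibition of growth.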

Columns and labels:
Assay in all cases: growth of human tumour cells (NCI), 48 h
SR leukemia = tested on: SR leukemia
M14 melanoma = tested on: M14 melanoma
SF-539 CNS = tested on: SF-539 CNS
T-47D breast = tested on: T-47D breast
HOP-62 NSCLC = tested on: HOP-62 NSCLC
MDA-MB-231 breast = tested on: MDA-MB-231 breast
DU-145 prostate = tested on: DU-145 prostate
NCI/ADR-RES ovarian = tested on: NCI/ADR-RES ovarian
SNB-75 CNS = tested on: SNB-75 CNS
CAKI-1 renal = tested on: CAKI-1 renal

Row | Compound | TGI (SR leukemia) [µM] | TGI (M14 melanoma) [µM] | TGI (SF-539 CNS) [µM] | TGI (T-47D breast) | TGI (HOP-62 NSCLC) [µM] | TGI (MDA-MB-231 breast) [µM] | TGI (DU-145 prostate) [µM] | TGI (NCI/ADR-RES ovarian) | TGI (SNB-75 CNS) [µM] | TGI (CAKI-1 renal) [µM] | GI50 (M14 melanoma) [µM] | GI50 (CAKI-1 renal) | GI50 (NCI/ADR-RES ovarian)
1 | CCCCNC1CCC2(SCCS2)c2[nH]c3ccccc3c21 (stereo unspecified) | 39.6 | > 65.1 | 31.6 | 6.23 µM | > 100 | > 62.6 | > 93.8 | > 100 µM | > 100 | – | – | – | –
2 | Clc1ccc(-c2ccc(-c3nnc(CCc4nnc(-c5ccc(-c6ccc(Cl)cc6)o5)o4)o3)o2)cc1 | 5.5 | > 100 | > 100 | > 100 µM | > 100 | > 100 | > 100 | > 100 µM | – | > 100 | – | – | –
3 | COc1ccc(-c2nc(N)c(C#N)c3c2CCS(=O)(=O)c2ccc(C)cc2-3)cc1OC | – | > 100 | – | > 100 µM | > 100 | > 100 | > 100 | > 100 µM | 69.7 | > 100 | – | – | –
4 | [O-]/[N+](=C\c1ccccc1)[C@H](COCc1ccccc1)c1ccccc1 | – | – | > 100 | – | > 100 | – | – | – | > 100 | – | – | – | –
5 | C1=C\SS/C=C\SS/C=C\SS/C=C\SS/1 | > 100 | > 100 | – | > 100 µM | > 100 | > 100 | > 100 | > 100 µM | – | > 100 | – | – | –
6 | CCC1(O)CC(OC2CC(N(C)C)C(OC3CC4OC5CC(=O)C(C)OC5OC4C(C)O3)C(C)O2)c2c(cc3c(c2O)C(=O)c2c(O)ccc(O)c2C3=O)C1C(=O)OC (stereo unspecified) | – | – | – | 0.0172 µM and 0.0152 µM | – | – | – | 0.0943 µM and 0.224 µM and 0.171 µM | – | – | 0.0245 | 0.00251 µM and 0.00763 µM | 0.00629 µM and 0.0109 µM and < 0.0105 µM
7 | O=C(CSc1nnc(-c2ccc(N=Cc3ccc(Cl)cc3)cc2)o1)Nc1ccccc1Cl | > 100 | > 100 | – | – | > 100 | – | – | – | > 100 | – | – | – | –
8 | CC[C@@]1(O)C(=O)OCc2c1cc1n(c2=O)Cc2c-1nc1ccccc1c2/C=N\NC(=O)C(N)CC(C)C (stereo partly specified) | < 0.0109 | 0.648 | – | > 100 µM | 0.382 | > 100 | > 100 | 0.856 µM | < 0.0248 | 0.181 | – | – | –
9 | Cc1ccc(S(=O)(=O)c2scc(-c3ccccc3)c2C)cc1 | – | > 100 | > 100 | > 100 µM | > 100 | > 100 | > 100 | > 100 µM | > 100 | > 100 | – | – | –
10 | CC1=NN(C(=O)CSc2nnc(SCC(=O)N3N=C(C)CC3(O)c3ccccc3)s2)C(O)(c2ccccc2)C1 (stereo unspecified) | > 100 | 36.1 | – | – | > 100 | > 100 | > 100 | 68.3 µM | – | > 100 | – | – | –
11 | O=C(Cc1ccccc1)NCCc1ccc(O)c(O)c1 | 73.3 | > 100 | > 100 | > 100 µM | > 100 | > 100 | > 100 | > 100 µM | > 100 | – | – | – | –
12 | CC1=NN(c2nc(N)nc(-c3ccccc3S(N)(=O)=O)n2)C(C)(C)C1 | 68.5 | 87.2 | > 100 | > 100 µM | > 100 | > 100 | > 100 | 52.5 µM | – | > 100 | – | – | –
13 | C=CCNC(=S)Nc1sc2c(c1C(=O)OCC)CC(C)CC2 (stereo unspecified) | 53.6 | 49.9 | – | 66.7 µM | 65.1 | 57 | > 100 | > 100 µM | 64.7 | > 100 | – | – | –
14 | Cc1nc2c(=S)[nH]ncc2[nH]1 | – | > 100 | > 100 | > 100 µM | > 100 | > 100 | – | > 100 µM | > 100 | > 100 | – | – | –
15 | CC(=O)OCC1OC(Nc2[nH]c(=O)n(C)c(=O)c2-c2csc(N)n2)C(OC(C)=O)C(OC(C)=O)C1OC(C)=O (stereo unspecified) | > 100 | > 100 | > 100 | – | > 100 | – | – | – | > 100 | > 100 | – | – | –
16 | CO/C(=N\N=C\c1cc(OC)ccc1OC)c1ccncc1 | > 10 | – | > 10 | > 10 µM | > 10 | – | – | > 10 µM | > 10 | – | – | – | –
17 | O=S(=O)(c1ccc(Br)cc1)n1c2ccc(Br)cc2c2nc3ccccc3nc21 | – | > 100 | – | > 100 µM | > 100 | > 100 | > 100 | > 100 µM | 82.6 | > 100 | – | – | –
18 | CCC(C)[C@@H](NCc1ccccc1)[C@H](OCc1ccccc1)[C@@H]1COC(C)(C)O1 (stereo partly specified) | 60.5 | > 100 | – | – | > 100 | 40.4 | 68 | 55.3 µM | > 100 | – | – | – | –
19 | COc1cc(/C=C2/SC(c3ccccc3)N(c3ccc(NC(C)=O)cc3)C2=O)cc(OC)c1OC (stereo unspecified) | > 100 | > 100 | > 100 | > 100 µM | > 100 | > 100 | > 100 | > 100 µM | – | > 100 | – | – | –
20 | COc1c2cc([N+](=O)[O-])cc1CNC(=O)CN1CCOCCOCCN(CCOCCOCC1)CC(=O)NC2 | – | > 100 | – | > 100 µM | > 100 | > 100 | > 100 | > 100 µM | > 100 | > 100 | – | – | –
21 | COCOc1ccc(C(=O)C(C)c2ccc(OCOC)cc2OCOC)c(O)c1 (stereo unspecified) | > 100 | > 100 | > 100 | – | > 100 | – | > 100 | – | > 100 | > 100 | – | – | –
22 | CN(C)CCNc1ccc(C(=O)NCCCN(C)CCCNC(=O)c2ccc(NCCN(C)C)c3c(=O)c4ccccc4[nH]c23)c2[nH]c3ccccc3c(=O)c12 | – | 1.53 | < 0.0309 | 2.64 µM | 1.5 | 0.388 | 2.48 | > 63.8 µM | – | 31.8 | – | – | –
23 | Cc1ccc(S(=O)(=O)N/N=C/c2oc(-c3cccc([N+](=O)[O-])c3)c(-c3cccc([N+](=O)[O-])c3)c2[N+](=O)[O-])cc1 | 45.8 | > 100 | > 100 | – | – | – | > 100 | – | > 100 | > 100 | – | – | –
24 | O=C1C2CCCCC2C(=O)N1n1c(Cc2ccc(Cl)cc2)n[nH]c1=O (stereo unspecified) | > 100 | > 100 | > 100 | > 100 µM | > 100 | > 100 | – | > 100 µM | > 100 | > 100 | – | – | –
25 | C1OCC2S[C@@H]3COCO[C@@H]3C2O1 (stereo partly specified) | > 100 | > 100 | > 100 | – | > 100 | – | – | – | > 100 | > 100 | – | – | –
